Measured values as given in patent publication US20260234553A1, “COMPOSITIONS COMPRISING SUPRAMOLECULAR ASSEMBLIES OF PEPTIDE AMPHIPHILES AND ORGANIC CATIONS AND METHODS OF USE THEREOF” (Northwestern University, priority 2023, published 2026).
“And” between values parts separate entries of the source, which are not always exact repeats. Equal values may be shown once. *: point of attachment. Palmitoyl = CCCCCCCCCCCCCCCC(=O)*

Assays:
PA nanostructures = assay: 1H DOSY NMR of OC free and with PA; assay type: binding
Protocol: Binding of organic cations (OCs) to PA. Initial screening of interactions of five different OCs with PA was performed using ^1H NMR spectroscopy in solution (FIG. 53). Here, ^1H signals lineshape from the ^1H NMR spectra of OCs were compared and analyzed against the corresponding ^1H signals from OC-PA samples. It is expected that ^1H signals will experience broadening if binding is occurring. In all cases we observed significant broadening except for tetramethylammonium (OC4), indicating its poor binding to PA nanostructures. ^1H DOSY NMR measurements. Spectra were measured by monitoring the change in intensity of the corresponding resonances as a function of the field gradient strength g (G/cm). A 2D sequence was used for diffusion measurement based on stimulated echo and LED which applies bipolar gradient pulses for diffusion (2 spoil gradients) together with water presaturation during relaxation delay (ledbpgppr2s Bruker sequence). ^1H DOSY data were first processed in Topspin (Fourier transformation, phasing, and baseline correction) and then the peak intensities of the corresponding resonances were extracted and fitted to the Stejskal-Tanner equation (Eq. 1) to give the value of diffusion coefficient D (m^2/s). Solution ^1H DOSY NMR data were fit to Eq. 1 using NMRTools.jl{, #28110}. ^1H HRMAS DOSY NMR data were fit using the Eq. 1 using Dynamics Center 2.6.3 software.
In the Eq. 1, I and I0 are the signal intensities in the presence and absence of gradient pulses, respectively; γ is the gyromagnetic ratio; g and δ are the gradient strength and their duration, respectively; σ=0.9, is the shape factor for the SMSQ gradient used in the experiment; Δ is the time separation between the edges of the gradient pulses.

CA1 pyramidal neurons = assay: Whole-cell current clamp recordings in organotypic hippocampal slice cultures on PA or ICN layers; assay type: cell-based, rat; design: Rheobase: unit not given beside the values
Protocol: To physiologically dissect the unique responses activated by Na^+-ICN vs. K^+-ICN, we explored the effect of ICNs on the stability of the hippocampal network. This well-established ex vivo model allows for the ability to reliably acquire electrophysiological data using organotypic hippocampal slice cultures from neonatal rats. A PA or ICN layer was prepared on top of Millicell® cell culture inserts, inserted hippocampal organotypic slices (including the entorhinal cortex), and measured multiple electrophysiological parameters from CA1 pyramidal neurons at 6, 10, and 14 DIV using whole-cell current clamp recordings (FIG. 5A). Given the known heterogeneity of the hippocampus, the CA1 pyramidal neuron excitability was measured in the dorsal area.
All experiments were carried out according to the European and institutional guidelines for the care and use of laboratory animals (Council Directive 86/609/EEC and French National Research Council) and approved by the local health authority (Préfecture des Bouches-du-Rhône, Marseille). Young wild type Wistar rats (P5-P10), of either sex, were used to prepare organotypic hippocampal slice cultures. Animals were deeply anesthetized with isoflurane (5%) and killed by decapitation. The brain was removed and both hippocampi were individually dissected. Hippocampal slices (300 μm) were cut using a Vibratome (Leica, VT1200S, Wetzlar, Germany) in a sucrose based cutting solution kept at 3-4° C. containing for 1L: ultrapure water (988.5 mL), sucrose (97 g), NaHCO3 (2.18 g), D-glucose (1.8 g), KCl (0.1 g), CaCl2 1M (1 mL), MgCl2 1M (10 mL). Kynurenic acid and penicillin/streptomycin were added to the solution just before cutting to control cellular electrical activity and avoid contamination during slices preparation respectively. Only dorsal hippocampal slices were collected and placed on 20 mm latex membranes (Millicell, Millipore) inserted into 35 mm Petri dishes containing 1 mL of culture medium and maintained in an incubator at 34° C., 95% 02-5% CO2. The culture medium contained 25 mL MEM, 1.25 mL HBSS, 12.5 mL horse serum, 0.5 mL penicillin/streptomycin, 0.8 mL glucose (1 M), 0.1 mL ascorbic acid (1 mg/mL), 0.4 mL Hepes (1 M), 0.5 mL B27, and 8.95 mL sterile H2O. At least 1 h before collecting the slices, PAs control, OC-PA KCl or OC-PA NaCl were painted on the external surface of the latex membranes by dragging a pipette (50 μL of annealed PAs control or OC-PAs) to extrude a thin coat of material and let organotypic slice cultures grow on it. The culture medium was changed regularly (every 3 days). Organotypic hippocampal slice cultures were used at 6, 10 and 14 DIV to perform electrophysiological recordings and at 10 DIV to perform immunostainings.
To perform electrophysiological recordings, the Millicell membrane containing the slices treated with PAs or OC-PAs was cut with a scalpel and transferred to a recording chamber perfused with oxygenated artificial cerebrospinal fluid (aCSF). This solution was maintained at 31° C. and contained: 125 mM NaCl, 26 mM NaHCO3, 3 mM CaCl2, 2.5 mM KCl, 2 mM MgCl2, 0.8 mM NaH2PO4, 10 mM D-glucose. It was finally equilibrated with 95% O2-5% CO2. Neurons were visualized under an upright microscope (Olympus BX50WI) in phase contrast by infrared video-microscopy using a 60× immersion objective. Whole-cell patch-clamp recordings were obtained from CA1 pyramidal neurons in dorsal hippocampal organotypic cultures at DIV6,10 and 14. Patch-clamp pipettes (7-9 MΩ) were filled with a solution containing (mM): K-gluconate 120, KCl 20, HEPES 10, EGTA 0, MgCl2 2, Na2ATP 2, and NaGTP 0.3 (pH 7.4). CA1 pyramidal neurons were recorded in whole cell current clamp with a MultiClamp 700B amplifier (Axon Instruments), digitalized at 20 kHz with Digidata 1440A (Molecular Devices), low pass filtered at 10 kHz, and acquired with Clampex software (Molecular Devices). For current-clamp recordings, pipette capacitance was compensated, and the bridge was balanced. […]

[1] = Anomalous small angle X-ray scattering (ASAXS) of Rb+ around PA and OC-PA; assay type: physicochemical
Excerpt: An anomalous small angle X-ray scattering (ASAXS) was used to deduce the spatial distribution of Rb^+ surrounding charged, twisted peptide amphiphile (PA) bilayer. ASAXS relies on the measurements of the subtle changes in the X-ray energy-dependent scattered intensity profiles from the combined counterion (here, Rb^+)-supramolecular assembly system. These changes arise due to strong dispersion corrections [f′(E), f″(E)] to the form factor (scattering/absorption power) of an atom or an ion when the X-ray energy E is close to the binding energy of a core-shell electron in the atom or the ion [(here, Rb^+ K-edge EK=15.2 keV.
Scattered intensity profiles were measured from 1 mM PA in solutions containing either 66 mM RbCl or 50 mM RbCl and 16 mM OC—Cl at 4 X-ray energies below the Rb^+ K edge (Table 8). The non-resonant
The block height h=1 nm is empirically selected for two reasons. First, no artifacts are introduced by this artificial construct in the simulated scattered intensities over the relevant ASAXS q range of 0.05-2 nm^−1 (FIG. 42). Second, this choice keeps the simulations relatively fast. The distribution of Rb^+ is assumed to follow the shape of each parallelepiped block (FIG. 43C), and consists of the condensed Rb^+ layer, which is associated with the 2 ionizable amino acid groups in the outer periphery of the PA bilayer, followed by 12 layers with exponentially decaying Rb^+ concentration. The total number of Rb^+ associated is equal to the parallelepiped charge, which is calculated based on estimates of the area/molecule/leaflet (At=0.5 nm^2) from molecular dynamics (MD) simulations and a fit parameter for the fraction of amino acids that are in the ionized state (a). Based on this model the orientationally averaged non-resonant intensity and the cross-term are calculated and compared to the data in FIG. 42. […]
The SAXS profiles in FIG. 42 were analyzed using the discretized model in FIG. 43. […] The best-fit was then selected based on manual calculations of the differences between the measured and simulated profiles. […]

Compound	diffusion constant D (PA nanostructures; 160.0 mM EMIMCl in PBS pH 7.4, free organic cation)	diffusion constant D (PA nanostructures; 160.0 mM EMIMCl in PBS pH 7.4 in the presence of 10.0 mM PA)	diffusion constant Db (slow diffusing) (PA nanostructures; HRMAS DOSY, pelleted OC-PA)	diffusion constant Df (fast diffusing) (PA nanostructures; HRMAS DOSY, pelleted OC-PA)	rheobase, representative traces (CA1 pyramidal neurons; 6 DIV)	rheobase, representative traces (CA1 pyramidal neurons; 10 DIV)	rheobase, representative traces (CA1 pyramidal neurons; 14 DIV)	Rheobase (CA1 pyramidal neurons; 6 days in vitro)	Spikes evoked at 240 pA (CA1 pyramidal neurons; 6 days in vitro)	Rheobase (CA1 pyramidal neurons; 10 days in vitro)	Spikes evoked at 240 pA (CA1 pyramidal neurons; 10 days in vitro)	Rheobase (CA1 pyramidal neurons; 14 days in vitro)	Spikes evoked at 240 pA (CA1 pyramidal neurons; 14 days in vitro)	Rb^+ concentration near headgroups over bulk Rb^+ concentration ([1]; 1 mM PA in 66 mM RbCl)	degree of ionization a ([1]; 1 mM PA in 66 mM RbCl)	fraction charged (simulated intensities fitted to ASAXS) ([1]; Rb^+ counterions)
CCn1cc[n+](C)c1.[Cl-] [OC, 1-ethyl-3-methyl imidazolium chloride]	(1.179±0.002)·10^−9 m^2s^−1	(2.900±0.023)·10^−10 m^2s^−1	(3.326±0.004)·10^−12 m^2s^−1	(1.630±0.001)·10^−10 m^2s^−1												
C16-VVAAEE (Palmitoyl-VVAAEE-NH2) [peptide amphiphile monomer, C16=palmitoyl, assembles into one-dimensional nanostructures]					90 pA and 80 pA	140 pA and 130 pA	130 pA	95.7 ± 5.6 and 86 ± 4.7	16.4 ± 1.1 and 16.2 ± 0.9	109.3 ± 4.8 and 121.8 ± 7.7	13.2 ± 0.7 and 12.8 ± 0.9	127 ± 4.4 and 131 ± 5.4	11.1 ± 0.5 and 10.3 ± 0.9	~ 40 ×	0.5	50%
